Measured values as given in patent US4117230A, “Hydantoin derivatives as therapeutic agents” (priority 1977, dated 1978).
Where a name gives a salt, the structure may show the parent alone. Each block holds one compound with its values, some of them ahead of it.

Key:
[1] = system: sorbitol levels in the sciatic nerve and lens of diabetic subjects; assay: lowering of sorbitol levels in sciatic nerve (peripheral nerves) and lens of diabetic subjects (summary statement); assay type: in vivo; settings: qualitative statement
aldose reductase = biological target: T1, aldose reductase (Bos taurus, UniProt P16116); assay: inhibition of aldose reductase enzyme activity (procedure of S. Hayman et al., modified by K. Sestanj et al.); assay type: biochemical, calf
T1 construct: partially purified aldose reductose enzyme obtained from calf lens; from tissue; host or cells: calf lens
Method: (§1) The activity of the compounds of the present invention, as agents for the control of chronic diabetic complications, is determined by their ability to successfully pass one or more of the following standard biological and/or pharmacological tests, viz., (1) measuring their ability to inhibit the enzyme activity of isolated aldose reductase; (2) measuring their ability to reduce or inhibit sorbitol accumulation in the sciatic nerve of acutely sterptozotocinized (i.e., diabetic) rats; (3) measuring their ability to reverse already-elevated sorbitol levels in the sciatic nerve and lens of chronic streptozotocin-induced diabetic rats; (4) measuring their ability to prevent or inhibit galactitol formation in the lens of acutely galactosemic rats, and (5) measuring their ability to delay cataract formation and reduce the severity of lens opacities in chronic galactosemic rats.
Hayman et al., as described in the Journal of Biological Chemistry, Vol. 240, p. […] In every case, the substrate employed ws partially purified aldose reductose enzyme obtained from calf lens.

[2] = system: lenticular opacities in galactosemic rats; assay: severity of lenticular opacities in galactosemic rats (percentage of lens area involved); assay type: in vivo, rat; settings: for lenses with area of involvement never less than 10%: 17 days, control 75%
Method: as §1
(§2) To determine the effect of 6-fluoro-spiro-[chroman-4,4'-imidazolidine]-2',5'-dione on cataract formation in galactosemis, rats were fed a 30% galactose diet with and without this compound for a period of 29 days and eye examinations also were routinely conducted approximately twice a week throughout this period. The experimental animals received the test compound mixed in the food at concentration levels necessary to afford approximate doses of 10 mg./kg. and 20 mg./kg., respectively. Control animals received the galactose diet alone (i.e., without the compound). […] The corresponding value obtained in rats receiving the test compound at 20 mg./kg. was 0%.
The effectiveness of 6-fluoro-spiro-[chroman-4,4'-imidazolidine]-2',5'-dione in delaying cataract development in rats is further highlighted by the test producedure of Example XLIV by giving careul consideration to the severity of the lenticular opacities involved. In this study, the percentage of lens areas involved were monitored throughout the 29-day period and the results obtained served as an index of severity. […]

[3] = system: sorbitol accumulation in the sciatic nerve of streptozotocinized (i.e., diabetic) rats; assay: inhibition of sorbitol accumulation in the sciatic nerve of acutely streptozotocinized (diabetic) rats; assay type: in vivo, rat; settings: measured at 27 h, vs untreated
Method: as §1
The following spiro-hydantoin compounds of Preparation C and Examples I-V, VII-IX, XI-XVII, XIX-XXV, XXVII and XXX-XXXIII, respectively, were tested for their ability to reduce or inhibit sorbitol accumulation in the sciatic nerve of streptozotocinized (i.e., diabetic) rats by the procedure essentially described in U.S. Pat. No. 3,821,383. In the present study, the amount of sorbitol accumulation in the sciatic nerves was measured 27 hours after induction of diabetes. The compounds were administered orally at the dose levels indicated at 4, 8 nd 24 hours following the administration of streptozotocin. The results obtained in this manner are presented below in terms of percent inhibition (%) afforded by the test compound as compared to the case where no compound was administered (i.e., the untreated animal where sorbitol levels normally rise from approximately […]. tissue to as high as […]. tissue in the 27-hour test period): […]

[4] = system: sorbitol levels in diabetic rats; assay: control of sorbitol formation in diabetic rats, oral route (summary statement); assay type: in vivo, rat; settings: 0.75 mg./kg. to 20 mg./kg.
From the text: As previously indicated, the spiro-hydantoin compounds of this invention are all readily adapted to therapeutic use as aldose reductase inhibitors for the control of chronic diabetic complications, in view of their ability to reduce lens sorbitol levels in diabetic subjects to a staistically significant degree. […] The other compounds of this invention also cause similar results. Furthermore, all the herein described compounds of this invention can be administered by either the oral or parenteral routes of administration, for the present purposes at hand, without causing any significant untoward pharmacological side reactions to occur in the subject to whom they are so administered. In general, these compounds are ordinarily administered in dosages ranging from about 0.1 mg. to about 10 mg. per kg. of body weight per day, although variations will necessarily occur depending upon the weight and condition of the subject being treated and the particular route of administration chosen.

[5] = system: cataract formation in galactosemic rats; assay: delay of cataract formation in galactosemic rats (incidence of lenticular opacities); assay type: in vivo, rat; settings: 30% galactose diet
Method: as §1, §2

[6] = system: galactitol formation in acutely galactosemic rats (lens); assay: inhibition of galactitol formation in the lens of acutely galactosemic rats; assay type: in vivo, rat; settings: 30% galactose diet, seven days
Method: as §1
The ability of 6-fluoro-spiro-[chroman-4,4'-imidazolidine]-2',5'-dione to prevent or inhibit galactitol formation in acutely galactosemic rats was determined by administering said compound to the animals, via their feed, for a period of seven days. In this study, normal male rats were first divided into groups of six animals each and then fed a 30% galactose diet together with the compound to be administered at three different dosage levels. […]

[7] = system: galactitol levels in the lens of galactosemic subjects; assay: lowering of galactitol levels in the lens of galactosemic subjects (summary statement); assay type: in vivo; settings: qualitative statement
[8] = system: sorbitol levels in the sciatic nerve and the lens of streptozotocin-induced diabetic rats; assay: reversal of already-elevated sorbitol levels in sciatic nerve and lens of chronic streptozotocin-induced diabetic rats; assay type: in vivo, rat; settings: 2.5 mg./kg. orally twice a day, seven days; two weeks after streptozotocin 65 mg./kg. i.v.; three hours post dose
Method: as §1
6-Fluoro-spiro-[chroman-4,4'-imidazolidine]-2',5'-dione (the product of Example XXII) was tested for its ability to reverse already-elevated sorbital levels in streptozotocininduced diabetic rats of two weeks duration (i.e., chronic) by administering said compound orally to the animals for a period of seven days. In this study, the sorbital determinations were carried out in both the sciatic nerve and the lens. Streptozotocin was first administered to the animals at 65 mg./kg., via the intravenous route. […]

[9] = assay type: physicochemical
Method: The sodium salt of 6-fluoro-spiro-[chroman-4,4'-imidazolidine]-2',5'-dione is prepared by dissolving said compound in water containing an equivalent amount in moles of sodium hydroxide and then freeze-drying the mixture.

inhibition at 100 µM (aldose reductase; 10^-4 M, calf lens enzyme, read-out: Percent inhibition of aldose reductase enzyme activity): 84%
inhibition at 10 µM (aldose reductase; 10^-5 M, calf lens enzyme, read-out: Percent inhibition of aldose reductase enzyme activity): 58%
inhibition at 1 µM (aldose reductase; 10^-6 M, calf lens enzyme, read-out: Percent inhibition of aldose reductase enzyme activity): 52%
inhibition at 0.1 µM (aldose reductase; 10^-7 M, calf lens enzyme, read-out: Percent inhibition of aldose reductase enzyme activity): 3%
aldose reductase inhibitory activity (in words) (aldose reductase; qualitative statement): highly potent
Compound: O=C1NC(=O)C2(CCOc3ccc(F)cc32)N1 (stereo not shown) [Ex. XXII, 6-fluoro-spiro[chroman-4,4'-imidazolidine]-2',5'-dione]
lowering of sorbitol levels in sciatic nerve (peripheral nerves) and lens (in words) [1]: extremely effective
lenses with area of involvement never less than 10% ([2]; 10 mg./kg.): 6%
lenses with area of involvement never less than 10% ([2]; 20 mg./kg.): 0%
severity of lenticular opacities versus control group ([2]; treated groups, including 29-day mark): always less than that found in the control group
Percent inhibition of sorbitol accumulation in the sciatic nerve ([3]; 0.75 mg./kg. orally at 4, 8 and 24 h after streptozotocin): 45%
Percent inhibition of sorbitol accumulation in the sciatic nerve ([3]; 1.5 mg./kg. orally at 4, 8 and 24 h after streptozotocin): 72%
control (inhibition) of the formation of sorbitol levels (in words) [4]: to a significantly high degree
delay in cataract formation ([5]; 20 mg./kg., 29-day mark): an impressive delay in cataract formation was still observed at the 29-day mark
eyes with lenticular opacities ([5]; 22-day mark, 10 mg./kg. in food): greater than 90%
eyes with lenticular opacities ([5]; 29-day mark, 20 mg./kg. in food): 37%
eyes with lenticular opacities ([5]; 17 days, 10 mg./kg. in food, control 100%): 6%
eyes with lenticular opacities ([5]; 17 days, 20 mg./kg. in food, control 100%): 0%
lenticular opacities in the eyes ([5]; after 8-14 days, either 10 mg./kg. or 20 mg./kg. in food, control 90% of eyes): no opacities being present
delay in cataract formation ([5]; all treated groups (10 and 20 mg./kg.)): delay in cataract formation continued in all the treated groups until the 22-day mark
inhibition of galactitol values in the lens ([6]; 10 mg./kg. in feed): 40%
inhibition of galactitol values in the lens ([6]; 20 mg./kg. in feed): 72%
lowering of galactitol levels in the lens (in words) [7]: extremely effective
reduction in sorbitol levels in the lens [8]: 71%
reduction in sorbitol levels in the sciatic nerve [8]: 68%

solubility in water [9]: freely soluble in water
Compound: O=C1NC(=O)C2(CCOc3ccc(F)cc32)N1 (stereo not shown) [sodium salt of 6-fluoro-spiro-[chroman-4,4'-imidazolidine]-2',5'-dione]
